Test results reported in ChEMBL document CHEMBL3507680, “University of Dundee, Gates Library screen for HepG2 cell viability”.

Assay: Human HepG2 cell viability assay in 384 well format
Type: toxicity, cell-based
Parameters: dose 125 nL, time 70.5 hour; concentration not given beside the values
Details: HepG2 cells, read-out: Inhibition

Structure (SMILES)	cytotoxicity at 70.5 h
O=C(CCn1ccc2ccc(F)cc21)/N=c1\[nH]nc(C2CCCO2)s1 (stereo unspecified)	-20.2%
Cc1cc(C(=O)N2C[C@@H]3[C@@H](C2)OCC(=O)N3CC2CC2)no1	-13.6%
CN(Cc1cc[nH]n1)C(=O)c1cn(Cc2ccccc2Cl)nn1	-9.32%
Cc1nc2n(n1)CC(Nc1ncnc3c1CCC3)CC2 (stereo unspecified)	-10.2%
O=C(Cc1cccc(O)c1)N1CCCC(O)(CN2CCOCC2)CC1 (stereo unspecified)	0.936%
COc1ccccc1CN(CC1CCCO1)C(=O)c1ccc(F)cn1 (stereo unspecified)	-9.98%
O=C(c1cnccn1)N1CCCC2(CCCN2Cc2cccnc2)C1 (stereo unspecified)	-1.76%
CN(C)CC(=O)N1CCN(C(=O)c2cccc3[nH]ncc23)CC1	-8.09%
Cn1cc(C2CCCN2C(=O)c2cnc(-c3ncccn3)s2)cn1 (stereo unspecified)	-1.78%
CNc1nc2c(c(C(=O)N3CCCC3)n1)CN(Cc1ccco1)CC2	-3.76%
CC(=O)N1CCO[C@@H]2CN(S(=O)(=O)C3CC3)CC[C@@H]2C1	-0.0787%
Cc1ccnc(NCc2ccccc2N2CCOCC2)n1	-16.7%
CCCc1ccc(CN2CCN(C(=O)N(C)C)[C@@H]3CS(=O)(=O)C[C@@H]32)o1	-10.7%
CC(=O)N1CCC(NC(=O)Cc2nc3nc(C)cc(C)n3n2)CC1	-3.83%
CS(=O)(=O)NC[C@]12COC[C@H]1CN(C(=O)CC1CCCC1)C2	-13.4%
CN(Cc1cc(Br)cn1C)C(=O)Cc1cccnc1	-9.83%
COc1ccccc1-c1ccc(C(=O)N2C[C@H]3CC[C@@H]2CN(C)C3)cc1	-8.1%
Cn1cc(CNCCn2cccn2)c(-c2cccnc2)n1	-4.81%
COc1ccccc1-c1ncc(CN2CCCC(CCC(N)=O)C2)s1 (stereo unspecified)	-10.1%
Cc1nnc(N2CCCC3(CN(c4cccc(F)c4)CCO3)C2)o1 (stereo unspecified)	1.49%
Cc1nc(COC[C@@H]2CC[C@H]3[C@H](CCN3S(C)(=O)=O)O2)cs1	-11.7%
Cc1cc(C)c(C(=O)NC(c2nnc3n2CCNCC3)C(C)C)c(C)c1 (stereo unspecified)	-5.04%
COCCC(C)NC(=O)c1cc(Br)c2c(c1)OCCO2 (stereo unspecified)	-10.3%

Structure (SMILES)	cytotoxicity at 70.5 h
Cc1ncccc1CNCC1CCc2nnc(C(C)C)n2C1 (stereo unspecified)	-7.03%
Cc1ccsc1CN(Cc1cccnc1)C1CC(C)(C)NC(C)(C)C1	5.95%
c1cnc(-c2nc(CNC3CCc4ncnn4C3)cs2)nc1 (stereo unspecified)	-6.68%
Cc1noc(CCCC(=O)N(CCC(=O)O)Cc2ccc(F)c(F)c2)n1	-3.72%
COCCNc1cc(-c2ccccc2C(N)=O)c2cc[nH]c2n1	-10.4%
CCOC1CCCN(C(=O)c2[nH]nc(C)c2Br)C1 (stereo unspecified)	-11.5%
COC(=O)NCC(=O)N(C)Cc1csc(-c2cccs2)n1	3.35%
O=C(C1CCCO1)N1C[C@@H]2CCN(c3cnccn3)C[C@@H]2C1 (stereo partly specified)	-9.71%
c1ccc(CO[C@H]2CC[C@H]3[C@H]2OCCN3CCN2CCCCC2)nc1	20.6%
Cn1nc2c(cc1=O)CN(Cc1nc(-c3ccccn3)no1)CC2	-9%
c1cc(CN2CCOC3(CCCC3)C2)no1	-2.72%
O=C(c1ccsc1)N1CCC2(CC1)CCN(S(=O)(=O)C1CC1)CC2	-9.77%
O=C(NCC1(O)CCC1)c1c(O)cc(Cl)cc1Cl	-1.39%
Cc1nc(C2CCCNC2)cc(N(C)CCc2ccccc2)n1 (stereo unspecified)	20.6%
Cn1c(C2CC2)nc2c1CCN(CCOc1ccccc1C#N)C2	23.9%
CC(Cn1cccn1)NC(=O)NCCN1CCCCCC1=O (stereo unspecified)	2.55%
c1cc(CN2CCc3ncnc(C4CCOC4)c3CC2)ccn1 (stereo unspecified)	-6.5%
Cc1cc(F)ccc1N1CCC(N2C[C@@H](CN(C)C)[C@@H](CO)C2)CC1	-6.24%
COc1ccc(C(=O)N2CCOc3ccncc32)cc1	-1.92%
O=C(c1ccnc(-n2cnnc2)c1)N1CCCC2(CCOC2)C1 (stereo unspecified)	-2.19%
COCCCN(C)c1nc(-c2ccncc2)nc2c1CCN(C(C)=O)C2	-7.86%
CS(=O)(=O)NCc1nnc2n1CCN(CC1CC1)C2	-6.05%
CCc1n[nH]c(C2CN(C(=O)c3cnc(C)s3)CCO2)n1 (stereo unspecified)	23.1%

Structure (SMILES)	cytotoxicity at 70.5 h
COC1(CNC(=O)c2ccc3nsnc3c2)CCSC1 (stereo unspecified)	-18.3%
Cc1ccc(NC(=O)CN(C)C(=O)c2ccc(-n3cccc3)nc2)nc1	-1.66%
CCN1C(=O)C[C@@H]2[C@@H]1CCN2S(=O)(=O)c1cccc(C)c1	12.1%
CN(Cc1ccc(F)cc1)C(=O)Nc1cccnc1N1CCCC1	-6.22%
CCOCCC(=O)N(C)Cc1noc(C(C)C)n1	24.4%
CCOc1cc(C(=O)N2CCN(CC)CC2)cc2occc12	-3.29%
CC1=C[C@@H](CC#N)[C@H](C(C)C)C[C@H]1CC(=O)N1CCN(CCO)CC1	-8.18%
O=C([C@@H]1C[C@H]2[C@H](CCN2Cc2nccs2)O1)N1CCOCC1	-8.03%
Clc1ccc(Cc2nc(CNCCn3cccn3)cs2)cc1	-1.63%
COc1ccc(C2=NOC(C#N)C2)cc1 (stereo unspecified)	8.47%
Cc1csc(CCNC(=O)c2cc3c(nc2O)CCC(C)C3)n1 (stereo unspecified)	-8.45%
CC(=O)N1CCN(c2cc(C)ncn2)CC(CO)C1 (stereo unspecified)	-3.4%
CC(=O)N1CCCN(CCCSc2ccccc2Cl)CC1	-6.8%
CN(C)S(=O)(=O)N1CCC(Oc2cccnn2)CC1	0.601%
Cc1nnc(N2C[C@H](OCc3cccnc3)[C@H]3OCCC[C@H]32)s1	10%
CC(=O)c1ccc(N2CCN(C(=O)c3cc(C(C)C)nn3C)CC2)cc1	-14.7%
NC(=O)[C@@H]1CN2CCN(C(=O)C3CC3)C[C@@H]2[C@H]1c1ccccc1	-2.24%
CC(C)c1nc(CNC(=O)c2ccc(C(C)N3CCCCC3)o2)cs1 (stereo unspecified)	11.9%
COCCNC(=O)Cn1c(-c2ccc(Cl)cc2)nc(C)c(CCO)c1=O	3.28%
CCn1cnnc1CNC(=O)N1CCC(C)CC1	16.5%
CN(CCCNC(=O)C1CCc2cn[nH]c2C1)c1ccc(F)cc1 (stereo unspecified)	16.9%
CN1CC(C)(C)CN(C(=O)CCc2ccccc2)CC1=O	-1.8%
OCCOc1cc(F)ccc1NCc1ccc(F)c(F)c1	-2.79%

Structure (SMILES)	cytotoxicity at 70.5 h
CS(=O)(=O)NCc1ncn2c1CN(Cc1cccs1)CCC2	-7.97%
CN(C)Cc1cc(C2CCCN(S(=O)(=O)c3cccc(Cl)c3)C2)nn1C (stereo unspecified)	-14.6%
CC(Cn1cccn1)NC(=O)c1cc(C2CC2)nc2c1cnn2C (stereo unspecified)	-9.86%
C[C@H]1C[C@@H]2CCN(C(=O)c3ccccn3)C[C@H]2O1	-2.22%
CC1CN(C)CCN1Cc1cccc(C(=O)NCc2ccco2)c1 (stereo unspecified)	27.4%
O=C(NCc1nc(C2CC2)no1)N1CCOC(c2ccccc2F)C1 (stereo unspecified)	-3.4%
CC(C)c1nc(C2CCCN(C(=O)c3ccc4c(c3)OCO4)C2)no1 (stereo unspecified)	18.1%
COc1ccc(NC(C)c2nnnn2-c2ccccc2)cn1 (stereo unspecified)	-96.1%
Cc1nn(C)c(C)c1-c1cnc(CC2CCNCC2)cn1	-4.79%
CC(C)OCCCNC(=O)CN(c1ccc(F)c(F)c1)S(C)(=O)=O	-6.87%
CCOC(=O)NCC(=O)Nc1nc2ccccc2n1C(C)(C)C	5.06%
Cc1ccc(CN(CCCn2ccnc2)Cc2ccccc2O)s1	3.23%
CC(NC(=O)C1=NN(C)C(=O)CC1)c1ccc(Cl)cc1 (stereo unspecified)	-110%
CCNc1nnc(SCc2nnc(C(C)(C)C)o2)s1	-8.88%
COc1ccc2c(c1)C1(CCN(Cc3cnn(C)c3)CC1)N(C)CC2	-0.704%
O=C(O)COc1ccc(CN2CCCC(Cc3cccnc3)C2)cc1 (stereo unspecified)	-9.55%
O=C1N(c2cccc(Cl)c2)Cc2nc(=O)[nH]n21	-3.18%
Cn1cncc1-c1nnc([C@H]2CCN(Cc3ccc(CO)o3)C2)o1	5.94%
Cc1cnn(CCNCc2ccccc2OCc2ccncc2)c1	3.09%
COCCN1C(=O)C2(CCC(C(=O)Nc3ccccn3)CC2)N=C1C (stereo unspecified)	-11.2%
Cc1ccc(N2CCCN(CC3CC3)C(C(C)C)C2)nn1 (stereo unspecified)	-14.3%
O=C1COC2(CCN(Cc3ccco3)CC2)CN1	-7.36%
Cc1ccc(CC(NC(=O)CN(C)C2CC2)c2ccccn2)cc1 (stereo unspecified)	-1.04%

Structure (SMILES)	cytotoxicity at 70.5 h
CCOCC1CN(S(=O)(=O)N(C)C)Cc2cnn(CC)c21 (stereo unspecified)	-8.84%
CCS(=O)(=O)NC[C@]12COC[C@H]1CN(Cc1cccc(OC)c1)C2	-11.2%
O=C(O)CCCC(=O)N1CCC(c2noc3cc(F)ccc23)CC1	-13.8%
Fc1ccc2[nH]c([C@H]3CCN(C4CCOCC4)C3)nc2c1	4.63%
CN(C)C(=O)CN1CCCCC1c1nc(N)ncc1-c1ccc(Cl)cc1 (stereo unspecified)	-15.8%
NC(=O)c1cc(C2CCCN(CCOCC(F)(F)F)C2)n[nH]1 (stereo unspecified)	34.2%
COc1ccc(CN2CCN(C3CCc4ccccc4C3)CC2)cc1O (stereo unspecified)	3.2%
CCc1ccccc1NC(=O)CCc1cnn(C)c1	-11.3%
O=C(c1ccccc1)N1CC[C@H]2C[C@@H](c3nccs3)O[C@@H]2C1	-17.1%
CCn1ccc(NC(=O)CN2C(=O)C(C)(C)c3ccccc32)n1	-11.1%
O=C1CN(C(=O)OCc2ccccc2)CC(O)CN1Cc1ccco1 (stereo unspecified)	12.1%
CN(Cc1ccccc1O)C(=O)Nc1cc(F)cc(N2CCCC2)c1	-7.37%
CC(Cn1cccn1)NCc1csc(-c2cccs2)n1 (stereo unspecified)	-26%
COCCN(C(=O)c1ccccn1)c1nc2c(s1)CCc1c-2cnn1C	14.7%
O=C1NCCO[C@H]2CN(C(=O)CCc3ccccc3Cl)CC[C@@H]12	22.6%
Cc1nccn1C1CCCN(C(=O)c2ccc3c(c2)COC3)C1 (stereo unspecified)	-3.92%
c1nc(CN2CCCC(Cc3ccc(NC4CCCC4)nn3)C2)c[nH]1 (stereo unspecified)	0.181%
CC(C)(C)NC(=O)N1CCC(Oc2ccc(C(F)(F)F)cn2)CC1	-6.24%
Cc1ccc(C(=O)NCc2ccnc(N(C)C)c2)c(C)c1	1.03%
